From paper PMC8409973, “Synthesis, antiproliferative and antitrypanosomal activities, and DNA binding of novel 6-amidino-2-arylbenzothiazoles” (Journal of Enzyme Inhibition and Medicinal Chemistry, 2021)
Structures can show the parent of a compound that is named as a salt.

Columns and labels:
[1] = tested on: SW620 (colorectal adenocarcinoma, metastatic); assay: Proliferation assay (MTT, 72 h) on SW620; format: cell-based; details: Homo sapiens, SW-620, SW620, 72 h
Method: (§1) Human cell lines SW620 (colorectal adenocarcinoma, metastatic), MCF-7 (human breast adenocarcinoma), CFPAC-1 (pancreatic adenocarcinoma), HeLa (cervical carcinoma), and HFF-1 (human foreskin fibroblasts) were obtained from the American Type Culture Collection (ATCC). Cells were cultured in a humidified atmosphere at 37 °C with 5% CO2. As a growth medium, Dulbecco’s modified Eagle medium (DMEM) was used with the addition of foetal bovine serum (10%), L-glutamine (2 mM), and antibiotics: streptomycin ([…]) and penicillin (100 U/ml).
(§2) Cells were seeded onto 96-well microtiter plates at a seeding density of 3000 cells/well for carcinoma cell lines, and 5000 cells/well for normal human fibroblasts. The next day, cells were treated with test agents at five different concentrations (0.01–100 µM) and further incubated for 72 h. […] 5-Fluorouracil (5-FU, 0.384 M fluorouracilum, Pliva 500 mg/10 ml) dissolved in physiological solution was used as a positive control. Following 72 h incubation, the MTT assay was performed and measured absorbances were transformed into a percentage of cell growth as described previously. Results were obtained from three independent experiments. IC50 values were calculated using linear regression analysis (FORECAST option taking into account the concentration range of two experimental points above and below IC50).

[2] = tested on: CFPAC-1 (pancreatic adenocarcinoma); assay: Proliferation assay (MTT, 72 h) on CFPAC-1; format: cell-based; details: Homo sapiens, CFPAC-1, 72 h
Method: as §1, §2

[3] = tested on: MCF-7 (human breast adenocarcinoma); assay: Proliferation assay (MTT, 72 h) on MCF-7; format: cell-based; details: MCF7, MCF-7, 72 h
Method: as §1, §2

[4] = tested on: HeLa (cervical carcinoma); assay: Proliferation assay (MTT, 72 h) on HeLa; format: cell-based; details: Homo sapiens
Method: as §1, §2

[5] = tested on: HFF-1 (human foreskin fibroblasts); assay: Proliferation assay (MTT, 72 h) on normal fibroblasts HFF-1; format: cell-based; details: HFF-1 normal fibroblasts
Method: as §1, §2

[6] = tested on: Bloodstream form T. b. brucei (strain 221); assay: Antitrypanosomal screening (resazurin); format: cell-based; details: Trypanosoma brucei; for IC90: concentration that inhibited growth by 90%, mean ± SEM; for IC50: mean of triplicate ± SEM
Method: Resazurin (20 μl at 0.125 mg ml^−1) was added after 48 h, the plates were incubated for a further 16 h, and then read in a Spectramax plate reader, and data analysed using GraphPad Prism. Each drug was tested in triplicate.

[7] = tested on: L6 cells (a rat myoblast line); assay: L6 cell proliferation (cytotoxicity, resazurin); format: cell-based; details: for IC50: 144 h, rat myoblast L6, 6 days; for SI IC50 (L6/Tb): SI = [IC50 L6 cells]/[IC50 T. brucei]

SMILES	melting point	IC50 [1]	IC50 [2]	IC50 [3]	IC50 [4]	IC50 [5]	IC90 [6]	IC50 [6]	IC50 [7]	SI IC50 (L6/Tb) [7]
N=C(N)c1ccc2nc(-c3ccc(OCc4cn(-c5ccccc5)nn4)cc3)sc2c1 (as salt: methanesulfonate) [10a]	272 to 275 °C									
N=C(N)c1ccc2nc(-c3ccc(OCc4cn(-c5ccc(Cl)cc5)nn4)cc3)sc2c1 (as salt: methanesulfonate) [10b]	276 to 279 °C									
COc1ccc(-n2cc(COc3ccc(-c4nc5ccc(C(=N)N)cc5s4)cc3)nn2)cc1 (as salt: methanesulfonate) [10c]	265 to 270 °C									
N=C(N)c1ccc2nc(-c3ccc(OCc4cn(Cc5ccccc5)nn4)cc3)sc2c1 (as salt: methanesulfonate) [10d]	253 to 257 °C									
N=C(N)c1ccc2nc(-c3cn(-c4ccccc4)nn3)sc2c1 (as salt: methanesulfonate) [13a, 6-Amidinium-2-(1-phenyl-1H-1,2,3-triazole-4-yl)benzothiazole methanesulfonate]	289 to 293 °C									
N=C(N)c1ccc2nc(-c3cn(-c4ccc(Cl)cc4)nn3)sc2c1 (as salt: methanesulfonate) [13b, 6-Amidinium-2-[1-(4-chlorophenyl)-1H-1,2,3-triazole-4-yl]benzothiazole methanesulfonate]	> 300 °C									
COc1ccc(-n2cc(-c3nc4ccc(C(=N)N)cc4s3)nn2)cc1 (as salt: methanesulfonate) [13c, 6-Amidinium-2-[1-(4-methoxyphenyl)-1H-1,2,3-triazole-4-yl]benzothiazole methanesulfonate]	> 300 °C									
N=C(N)c1ccc2nc(-c3cn(Cc4ccccc4)nn3)sc2c1 (as salt: methanesulfonate) [13d, 6-Amidinium-2-(1-benzyl-1H-1,2,3-triazole-4-yl)benzothiazole methanesulfonate]	262 to 267 °C									
N=C(N)c1ccc2nc(-c3ccc(OCc4cn(-c5ccccc5)nn4)cc3)sc2c1 [10a]		2.89 ± 0.03 µM	3.34 ± 0.19 µM	3.39 ± 1.17 µM	2.89 ± 0.11 µM	0.17 ± 0.04 µM	1.45 ± 0.11 µM	1.17 ± 0.1 µM	< 2 µM	
COc1ccc(-n2cc(COc3ccc(-c4nc5ccc(C(=N)N)cc5s4)cc3)nn2)cc1 [10c]		3.86 ± 0.29 µM	3.45 ± 0.29 µM	3.66 ± 1.49 µM	2.87 ± 1.24 µM	0.31 ± 0.08 µM	1.26 ± 0.02 µM	1 ± 0.07 µM	< 2 µM	
N=C(N)c1ccc2nc(-c3ccc(OCc4cn(Cc5ccccc5)nn4)cc3)sc2c1 [10d]		1.18 ± 0.18 µM	5.15 ± 0.23 µM	3.02 ± 0.98 µM	1.77 ± 0.45 µM	0.76 ± 0.18 µM				
COc1ccc(-n2cc(COc3nc4ccc(C5=NCCN5)cc4s3)nn2)cc1.CS(=O)(=O)O [11c, 6-(4,5-Dihydro-1H-imidazol-3-ium-2-yl)-2-{[1-(4-methoxyphenyl)-1H-1,2,3-triazol-4-yl]methoxy}benzothiazole methanesulfonate]	253 to 257 °C	0.5 ± 0.16 µM	2.06 ± 0.7 µM	0.86 ± 0.97 µM	2.53 ± 0.01 µM	0.24 ± 0.13 µM	0.23 ± 0.05 µM	0.19 ± 0.04 µM	< 2 µM	
CS(=O)(=O)O.c1ccc(Cn2cc(COc3nc4ccc(C5=NCCN5)cc4s3)nn2)cc1 [11d, 6-(4,5-Dihydro-1H-imidazol-3-ium-2-yl)-2[(1-benzyl-1H-1,2,3-triazol-4-yl)methoxy]benzothiazole methanesulfonate]	227 to 232 °C	1.81 ± 0.55 µM	1.21 ± 0.74 µM	2.21 ± 1.17 µM	1.4 ± 0.75 µM	0.18 ± 0.02 µM	1.3 ± 0.02 µM	1.09 ± 0.02 µM	< 0.2 µM	
CS(=O)(=O)O.c1ccc(-n2cc(COc3nc4ccc(C5=NCCCN5)cc4s3)nn2)cc1 [12a, 6-(3,4,5,6-Tetrahydropyrimidin-1-ium-2-yl)-2-[(1-phenyl-1H-1,2,3-triazol-4-yl)methoxy] benzothiazole methanesulfonate]	249 to 254 °C	4.17 ± 0.28 µM	3.98 ± 0.29 µM	3.98 ± 0.04 µM	2.95 ± 0.38 µM	0.44 ± 0.03 µM				
COc1ccc(-n2cc(COc3nc4ccc(C5=NCCCN5)cc4s3)nn2)cc1.CS(=O)(=O)O [12c, 6-(3,4,5,6-Tetrahydropyrimidin-1-ium-2-yl)-2-{[1-(4-methoxyphenyl)-1H-1,2,3-triazol-4-yl]methoxy}benzothiazole methanesulfonate]	259 to 264 °C	5.22 ± 1.24 µM	3.31 ± 0.6 µM	3.46 ± 0.45 µM	2.64 ± 0.46 µM	0.46 ± 0.27 µM	1.18 ± 0.02 µM	0.9 ± 0.05 µM	2.92 ± 0.26 µM	3.2
CS(=O)(=O)O.c1ccc(Cn2cc(COc3nc4ccc(C5=NCCCN5)cc4s3)nn2)cc1 [12d, 6-(3,4,5,6-Tetrahydropyrimidin-1-ium-2-yl)-2-[(1-benzyl-1H-1,2,3-triazol-4-yl)methoxy]benzothiazole methanesulfonate]	197 to 199 °C	7.94 ± 2.58 µM	23.4 ± 0.29 µM	6.01 ± 0.53 µM	8.6 ± 0.85 µM	1.74 ± 0.29 µM				
N=C(N)c1ccc2nc(-c3cn(-c4ccccc4)nn3)sc2c1 [13a, 6-Amidinium-2-(1-phenyl-1H-1,2,3-triazole-4-yl)benzothiazole methanesulfonate]		24.2 ± 4.31 µM	26.6 ± 4.69 µM	25.6 ± 3.15 µM	7.77 ± 0.05 µM	2.07 ± 0.13 µM	2.52 ± 0.34 µM	2.02 ± 0.1 µM	7.97 ± 0.96 µM	3.9
N=C(N)c1ccc2nc(-c3cn(-c4ccc(Cl)cc4)nn3)sc2c1 [13b, 6-Amidinium-2-[1-(4-chlorophenyl)-1H-1,2,3-triazole-4-yl]benzothiazole methanesulfonate]		3.55 ± 0.85 µM	3.17 ± 0.11 µM	3.32 ± 0.01 µM	2.74 ± 0.21 µM	0.85 ± 0.05 µM	1.02 ± 0.02 µM	0.67 ± 0.07 µM	2.69 ± 0.42 µM	4.0
COc1ccc(-n2cc(-c3nc4ccc(C(=N)N)cc4s3)nn2)cc1 [13c, 6-Amidinium-2-[1-(4-methoxyphenyl)-1H-1,2,3-triazole-4-yl]benzothiazole methanesulfonate]		5.39 ± 0.41 µM	5.23 ± 0.87 µM	4.5 ± 0.43 µM	3.64 ± 1.44 µM	2.99 ± 1.17 µM				
N=C(N)c1ccc2nc(-c3cn(Cc4ccccc4)nn3)sc2c1 [13d, 6-Amidinium-2-(1-benzyl-1H-1,2,3-triazole-4-yl)benzothiazole methanesulfonate]		9.48 ± 0.29 µM	25.9 ± 3.71 µM	22.6 ± 0.91 µM	14.9 ± 1.54 µM	4.04 ± 1.35 µM				
CS(=O)(=O)O.c1ccc(Cn2cc(-c3nc4ccc(C5=NCCN5)cc4s3)nn2)cc1 [14d, 6-(4,5-Dihydro-1H-imidazol-3-ium-2-yl)-2-(1-benzyl-1H-1,2,3-triazole-4-yl)benzothiazole methanesulfonate]	236 to 240 °C	0.85 ± 0.61 µM	8.71 ± 3.74 µM	1.76 ± 1.17 µM	0.82 ± 0.01 µM	0.11 ± 0.01 µM	8.66 ± 0.2 µM	3.68 ± 0.22 µM	6.64 ± 0.53 µM	1.8
CS(=O)(=O)O.c1ccc(-n2cc(-c3nc4ccc(C5=NCCCN5)cc4s3)nn2)cc1 [15a, 6-(3,4,5,6-Tetrahydropyrimidin-1-ium-2-yl)-2-(1-phenyl-1H-1,2,3-triazole-4-yl)benzothiazole methanesulfonate]	269 to 274 °C	4.15 ± 1.58 µM	37.6 ± 4.58 µM	8.31 ± 0.12 µM	7.62 ± 0.84 µM	0.53 ± 0.1 µM				
COc1ccc(-n2cc(-c3nc4ccc(C5=NCCCN5)cc4s3)nn2)cc1.CS(=O)(=O)O [15c, 6-(3,4,5,6-Tetrahydropyrimidin-1-ium-2-yl)-2-[1-(4-methoxyphenyl)-1H-1,2,3-triazole-4-yl]benzothiazole methanesulfonate]	261 to 265 °C	4.07 ± 1.06 µM	4.74 ± 0.14 µM	4.28 ± 0.06 µM	4.3 ± 0.41 µM	1.33 ± 0.17 µM				
CS(=O)(=O)O.c1ccc(Cn2cc(-c3nc4ccc(C5=NCCCN5)cc4s3)nn2)cc1 [15d, 6-(3,4,5,6-Tetrahydropyrimidin-1-ium-2-yl)-2-(1-benzyl-1H-1,2,3-triazole-4-yl)benzothiazole methanesulfonate]	170 to 174 °C	31.9 ± 8.38 µM	49.9 ± 12.5 µM	40.6 ± 10.6 µM	31 ± 4.5 µM	18.9 ± 0.19 µM				
